# Data as given in paper PMC5303819, “Cryptic bioactivity capacitated by synthetic hybrid plant peptides” (Nature Communications, 2017).
# Key:
# hypocotyl stele = experiment: Stele-thickening assay (hypocotyl stele width); format: in vivo, Arabidopsis thaliana; details: for effect on stele radial growth / stele width: 10 μM peptide, liquid medium, 10-day-old hypocotyl, Fig. 1e,f
# Protocol: (§1) For the observation of stele and leaf vein, seeds were germinated and cultured with shaking at 110 r.p.m. at 22 °C under continuous light in liquid half-strength MS medium supplemented with 1% sucrose and peptide/control solution. 10-day-old seedlings were fixed in a 1:3 mixture of acetic acid/ethanol, washed with water and mounted in clearing solution (chloral hydrate/glycerol/water=8:1:2) before imaging with a light microscope (Axio Imager.A2, Zeiss).
# [1] = test system: Arabidopsis thaliana root; experiment: Root-shortening assay (root length); format: in vivo; details: for CLV3-type activity: root 1 µM (stele 10 µM), Supplementary Fig. 8; for root-shortening activity: 1 μM peptide, 14-day-old root length, Fig. 1b, n=13-20
# Protocol: (§2) For root-length measurement, plants were germinated and grown vertically on half-strength Murashige and Skoog (MS) medium supplemented with 1% sucrose and peptide/control solution at 22 °C under continuous light. To observe the RAM, 4-day-old roots were excised and mounted in clearing solution (chloral hydrate/glycerol/water=8:1:2) before imaging with light microscope (Axio Imager.A2, Zeiss).
# [2] = target: T1, CLV1 ectodomain (CLV1-HT) (Arabidopsis thaliana, UniProt Q9SYQ8); experiment: Photo-affinity labelling with [125I]ASA-KIN, CLV1; format: binding
# T1 construct: applied it to the membrane fractions containing receptor ectodomains expressed in tobacco cells; made in house; host or cells: tobacco BY-2 cells (microsomal fraction)
# T1 sequence (Q9SYQ8 25-638 limits assumed): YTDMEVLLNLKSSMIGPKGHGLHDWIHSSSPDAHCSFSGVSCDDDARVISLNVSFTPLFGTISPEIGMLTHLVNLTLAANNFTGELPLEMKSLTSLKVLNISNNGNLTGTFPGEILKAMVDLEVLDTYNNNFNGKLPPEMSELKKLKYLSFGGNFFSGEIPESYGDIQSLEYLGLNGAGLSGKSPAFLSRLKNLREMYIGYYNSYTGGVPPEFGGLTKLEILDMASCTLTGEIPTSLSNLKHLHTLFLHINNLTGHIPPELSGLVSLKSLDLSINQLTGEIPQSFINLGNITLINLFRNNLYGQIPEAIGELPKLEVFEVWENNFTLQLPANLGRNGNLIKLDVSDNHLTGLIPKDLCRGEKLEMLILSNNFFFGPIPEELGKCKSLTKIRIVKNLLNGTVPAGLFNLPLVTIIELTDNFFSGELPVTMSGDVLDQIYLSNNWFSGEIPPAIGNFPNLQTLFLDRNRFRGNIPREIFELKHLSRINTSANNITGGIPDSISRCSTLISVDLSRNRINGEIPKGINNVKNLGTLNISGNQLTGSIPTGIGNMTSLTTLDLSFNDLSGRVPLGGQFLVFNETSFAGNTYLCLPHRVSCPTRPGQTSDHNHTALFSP
# Protocol: (§3) Aliquots (1,000 μg) of microsomal proteins for Halo-tagged receptors (CLV1-HT[10], TDR-HT[7] and CLV2-HT[20]) from tobacco BY-2 cells were suspended in 250 μl binding buffer (50 mM MES-KOH pH 5.5 with 100 mM sucrose) containing 30 nM [^125I]ASA-KIN in the presence or absence of various concentrations of competitor peptides indicated in corresponding figure legends and then incubated for 10 min on ice. The bound and free [^125I]ASA-KIN were separated by layering the reaction mixture onto 900 μl of wash buffer (50 mM MES-KOH pH 5.5 with 500 mM sucrose) and centrifuging for 5 min at 100,000 g at 4 °C. After discarding the supernatant, the pellet was irradiated on ice for 20 min with an ultraviolet lamp (model ENF-260C/J (365 nm), Spectronics Co. Ltd) at a distance of 1 cm. The cross-linked membrane proteins were solubilized, immunoprecipitated by using HaloTag antibody and separated by SDS–PAGE on a 7.5% acrylamide gel. The dried gels were exposed to the bio-imaging plate (MS 2,025, Fujifilm) for 2 days at room temperature and the plates were analysed using a bio-imaging analyser (Typhoon FLA 900, GE).
# TDR ectodomain (TDR-HT) = target: T2, TDR ectodomain (TDR-HT) (Arabidopsis thaliana, UniProt Q9FII5); experiment: Photo-affinity labelling with [125I]ASA-KIN, TDR; format: binding
# T2 construct: applied it to the membrane fractions containing receptor ectodomains expressed in tobacco cells; made in house; host or cells: tobacco BY-2 cells (microsomal fraction)
# T2 sequence (Q9FII5 30-652 limits assumed): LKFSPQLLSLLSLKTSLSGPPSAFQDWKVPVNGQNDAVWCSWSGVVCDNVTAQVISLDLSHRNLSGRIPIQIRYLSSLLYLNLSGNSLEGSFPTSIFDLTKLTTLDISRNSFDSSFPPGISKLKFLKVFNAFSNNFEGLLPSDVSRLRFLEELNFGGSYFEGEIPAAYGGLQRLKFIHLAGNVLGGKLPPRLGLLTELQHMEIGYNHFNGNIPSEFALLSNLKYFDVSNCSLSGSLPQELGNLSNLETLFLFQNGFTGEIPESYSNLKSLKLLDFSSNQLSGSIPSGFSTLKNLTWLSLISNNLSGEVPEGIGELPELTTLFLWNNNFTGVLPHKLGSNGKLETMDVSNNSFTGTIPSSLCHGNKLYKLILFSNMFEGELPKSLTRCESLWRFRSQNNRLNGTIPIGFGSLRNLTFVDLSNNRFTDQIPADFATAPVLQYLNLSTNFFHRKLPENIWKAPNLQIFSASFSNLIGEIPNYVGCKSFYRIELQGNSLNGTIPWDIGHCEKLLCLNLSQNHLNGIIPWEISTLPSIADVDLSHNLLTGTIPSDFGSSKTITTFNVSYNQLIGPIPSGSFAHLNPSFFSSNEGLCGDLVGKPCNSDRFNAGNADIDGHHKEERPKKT
# Protocol: as §3
# [3] = target: T3, CLV2 ectodomain (CLV2-HT) (Arabidopsis thaliana, UniProt O80809); experiment: Photo-affinity labelling with [125I]ASA-KIN, CLV2; format: binding; details: 30 nM [125I]ASA-KIN probe, same condition, Supplementary Fig. 6
# T3 construct: made in house; host or cells: tobacco BY-2 cells (microsomal fraction)
# T3 sequence (O80809 26-686 limits assumed): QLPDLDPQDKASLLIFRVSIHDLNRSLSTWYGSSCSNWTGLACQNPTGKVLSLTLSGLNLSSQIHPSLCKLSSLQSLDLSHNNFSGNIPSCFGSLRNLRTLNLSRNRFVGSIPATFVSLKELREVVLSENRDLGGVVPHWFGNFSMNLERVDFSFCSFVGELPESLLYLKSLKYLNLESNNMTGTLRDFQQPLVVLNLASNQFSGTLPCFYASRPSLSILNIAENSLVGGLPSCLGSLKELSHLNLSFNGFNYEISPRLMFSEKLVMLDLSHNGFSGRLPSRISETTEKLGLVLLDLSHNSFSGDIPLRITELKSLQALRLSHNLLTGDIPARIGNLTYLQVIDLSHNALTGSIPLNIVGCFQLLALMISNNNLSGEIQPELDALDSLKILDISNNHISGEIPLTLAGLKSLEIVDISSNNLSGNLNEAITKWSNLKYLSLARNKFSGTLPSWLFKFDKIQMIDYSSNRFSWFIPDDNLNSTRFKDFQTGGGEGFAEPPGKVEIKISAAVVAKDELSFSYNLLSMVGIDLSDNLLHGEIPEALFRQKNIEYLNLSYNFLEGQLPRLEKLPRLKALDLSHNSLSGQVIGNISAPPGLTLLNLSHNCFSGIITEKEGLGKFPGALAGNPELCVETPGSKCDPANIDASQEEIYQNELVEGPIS
# Protocol: as §3
# [4] = test system: root apical meristem (RAM); experiment: Root apical meristem (RAM) morphology; format: in vivo, Arabidopsis thaliana; details: 1 μM peptide, 4-day-old, wild type, Fig. 1c
# Protocol: as §2
# leaf vein xylem strands = experiment: Leaf vein xylem strand observation; format: in vivo, Arabidopsis thaliana; details: 10 μM peptide, 10-day-old clv2-101, Fig. 2c
# Protocol: as §1
# [5] = test system: shoot apical meristem (SAM); experiment: Shoot apical meristem (SAM) morphology in sections; format: in vivo, Arabidopsis thaliana; details: 10 μM peptide, 10-day treatment
# Protocol: To observe the SAM, plants were germinated and grown at 22 °C under continuous light on half-strength MS medium supplemented with 1% sucrose and 10 μM peptide/control solution. To make sections, roots and leaves were cut off from 10-day-old seedlings, then fixed in FAA solution (50% ethanol:10% formalin:5% acetic acid in water) and embedded into Technovit 7,100 resin according to the manufacturer's instructions (Heraeus Kulzer). Four-micrometre-thin sections were made using a microtome (RM2235, Leica), stained with 0.05% toluidine blue and mounted in Entellan New (Merck) before observation with a light microscope (Axio Imager.A2, Zeiss).
# [6] = test system: Arabidopsis thaliana root; details: cited from earlier work
# Source text: CLV3-like activities have also been reported in other 18 CLE peptides. […] We analysed the structure–activity relationship between CLV3 (Fig. 1a, peptide 1) and CLE25 (Fig. 1a, peptide 2) by swapping the residues at 2nd, 5th, 10th and 12th positions (Fig. 1a, peptide 3–16). […] Although all the chimera peptides shortened the root, only the peptide 15, hereafter call ...
# [7] = 30 nM probe, MES-KOH pH 5.5, 10 min on ice, tobacco BY-2 microsomes, Fig. 3c
# [8] = various concentrations of KIN, Supplementary Fig. 7
# [9] = wild type, Supplementary Fig. 1
substance,measurement,setting,value
[(4-azidosalicyl)Lys^2]KIN [ASA-KIN],"bioactivity compared with KIN, hypocotyl stele thickening",hypocotyl stele; Supplementary Fig. 5c,reduced compared with the original KIN
same,"bioactivity compared with KIN, root shortening","[1]; 10 nM-1 µM, Supplementary Fig. 5b",reduced compared with the original KIN
"CLV3-S^11th: CLV3 with H-to-S substitution at the 11th position (RTVPSGPDPLSHH; MCLV3; UniProt Q9XF04 70-82, looked up, variant H11S)",interaction with CLV1 in competitive displacement assay with [125I]ASA-KIN,[2]; Supplementary Fig. 10,retained the interaction with CLV1
same,CLE41-type activity,"hypocotyl stele; stele 10 µM, Supplementary Fig. 8",neither CLV3 nor CLE41 activity
same,CLV3-type activity,[1],neither CLV3 nor CLE41 activity
same,CLV3-type activity,[1]; listed as peptide 24,even weaker than KIN-1δ
[^125I]-radiolabelled [(4-azidosalicyl)Lys^2]KIN [[^125I]ASA-KIN],photo-affinity labelling of CLV1 ectodomain,[2]; [7],covalently labelled
same,competitive displacement of probe binding to CLV1 by KIN,[2]; [8],binds to these receptors in a similar manner
same,photo-affinity labelling of TDR ectodomain,TDR ectodomain (TDR-HT); [7],covalently labelled
same,competitive displacement of probe binding to TDR by KIN,TDR ectodomain (TDR-HT); [8],binds to these receptors in a similar manner
same,interaction with CLV2 ectodomain,[3],no interaction was detected
"CLV3: endogenously encoded 12 amino-acid CLE peptide, chemically synthesized without hydroxyprolines",size of the root apical meristem (RAM),[4],reduced
same,competition of [125I]ASA-KIN labelling of CLV1,"[2]; 1,000-fold excess non-radio-labelled peptide, Fig. 3c",competitively inhibited
same,effect on xylem differentiation in leaf vein,leaf vein xylem strands,not observed
same,SAM of clv1-101 and clv2-101 mutants after treatment,"[5]; loss-of-function mutants, Fig. 2a",maintained
same,effect on SAM,"[5]; wild type, Fig. 1d",disappeared
same,response of clv2-101 mutant to inhibitory activity on stele width,"hypocotyl stele; 100 nM peptide, clv2-101 mutant, Fig. 2b",insensitive
same,effect on stele width at 100 nM,"hypocotyl stele; 100 nM peptide, wild type, 10-day-old, Fig. 1g, 2b",reduced the stele width
same,effect on stele radial growth / stele width,"hypocotyl stele; wild type, 2b",reduced radial growth of the stele
same,lowest concentration with negative effect on stele growth,"hypocotyl stele; wild type, 10-day-old, dose-response Fig. 1g",30 nM
same,root-shortening activity,[1]; wild type,showed root-shortening activities
same,"response of clv2-101 mutant, root length and RAM size","[1]; clv2-101 mutant, Supplementary Fig. 3a,b",resistant
same,dose-response of root growth attenuation,"[1]; wild type, 1 nM-1 µM, Supplementary Fig. 1",attenuates the root growth in a lower concentration than CLE25 and KIN
same,concentration at which bioactivity starts in root shortening assay,[1]; [9],~ 10 nM
"CLE25: endogenously encoded CLE peptide sequence, CLV3-type, synthesized without hydroxyprolines (RKVPNGPDPIHN; CLE25p no hydroxyprolines; UniProt Q8LFL4 58-69, looked up)",size of the root apical meristem (RAM),[4],reduced
same,effect on stele radial growth / stele width,"hypocotyl stele; wild type, 2b",reduce the thickening of vascular tissues in the hypocotyl
same,root-shortening activity,[1]; wild type,showed root-shortening activities
same,concentration at which bioactivity starts in root shortening assay,[1]; [9],~ 100 nM
same,effectiveness in the root-shortening assay,[6],more effective than CLV3
